Measured values as given in patent US4499104A, “Imidazole compound, the process for its preparation, and therapeutically active compositions containing same” (priority 1976, dated 1985).

Key:
[1] = Pulminary edema by carrageen (Sancilio method, pleural exudate); type: in vivo, Wistar-Roux-Ocefa rats; conditions: for ml of exudate: 30 mg/Kg, pleural cavity
Procedure: Using the Sancilio method (Sancilio F. L., J. Pharmacol. Exptl. Therap., 168, 199 (1969); Sancilio L. F. Rodrigues R., Proc. Soc. Exptl. Biol. Med., 123, 707 (1969); Sancilio L. F. Lawrence R., Proc. Soc. Exptl. Biol. Med., 127, 597 (1968), pulminary irritation was induced in Wistar-Roux-Ocefa rats and the capacity of chlorophenazole and other drugs to prevent production of pleural exudate was measured. 5 ml of a 0.025% carrageen solution and 0.075% Evans blue were injected into the pleurea.
The action of chlorophenazole, mepyrazole and phenylbutazone were evaluated from the quantity of exudate present in the pleural cavity after 1 and 6 hours.

[2] = Edema by carrageen (rat paw), antiedematous activity; type: in vivo, Rats of the Wistar-Roux-Ocefa stock; conditions: for IT (DL50/DE50): DL50/DE50, os; for ED50: Rattus norvegicus, po, os, probits method and graphically, read-out: DE50 (the source's name)
Procedure: (§1) A 1% physiological solution of carrageen was used. Rats of the Wistar-Roux-Ocefa stock having a weight of 150±30 g were used. The drugs were suspended in 1% carboxymethylcellulose or dissolved in distilled water and administered orally one hour before the inflammatory agent in a volume of 0.5 ml/100 g. The carrageen was adminstered subcutaneously in the subplanetary region of one of the rear paws. The volume of the paw was measured platysmagraphically initially and then after 1.5 hour, 3 hours and 5 hours after administering the carrageen. One inflammation unit was defined as the displacement of 0.01 ml of Hg.
(§2) The edema was evaluated as the difference in volume of the rear paw before and after the carrageen. The DE 50 was calculated by the probits method and graphically. The comparison drugs used were phenylbutazone and niflumic acid.

in vivo = conditions: rat, po
[3] = Edema by carrageen in normal and adrenoprival (suprarenectomised) rats; type: in vivo, rat; set-up: Edema by carrageen: unit not given beside the values; conditions: adrenoprival rats
Procedure: as §1, §2
To evaluate if the activity of the chlorophenazole on edema by carrageen was influenced by stimulation of the suprarenes, experiments were carried out with suprarenectomised rats. Normal rats were also compared with falsely operated rats to evaluate the influence of the operational trauma.

[4] = Action on sleep by barbiturates; type: in vivo, Wistar-Ocefa rats; conditions: pentobarbital sodium 40 mg/kg alone
Procedure: […] Loss of the redressment reflex was taken to indicate commencement of sleep. The chlorophenazone was administered orally with a dose of 1/10 of the DL50. The induction time and the duration of sleep were measured.

rats = assay: Chronic toxicity, first experiment (60 days); type: in vivo, Wistar-Ocefa rats; conditions: rat, in vivo
Procedure: Wistar-Ocefa rats of both sexes weighing 70-90 g were used, divided into groups of 30 animals (15 males and 15 females) to a total of […].
Chlorophenazole and phenylbutazone (reference drug) were administered orally for a period of 60 days in doses of 30-60 mg/kg of chlorophenazole and 8-160 mg/kg of phenylbutazone (first experiment) and for a period of 5 months in doses of 6-12 mg/kg of chlorophenazole and 16 mg/kg of phenylbutazone (second experiment).
The following parameters were determined periodically: behavior, general state, food consumption, body weight, red blood cell number, white blood cell number, leucocite formula, hemoglobin, hematocrit, globular value, total proteins, glycemia, azotemia, cholesterol, total lipids, triglycerides, creatinine, GOT, GPT, urine analysis. At the end of the experiment the animals were sacrificed, their general state was observed, the following organs were weighed: liver, spleen, kidneys, supranenes, ovary and testicles, lungs, heart, stomach.

SMILES | ml of exudate [1] [mL] | Δ Volume of the inflamed paw ([2]; 10 mg/kg oral, 1.5 hours) [UPI] | Δ Volume of the inflamed paw ([2]; 10 mg/kg oral, 3 hours) [UPI] | Δ Volume of the inflamed paw ([2]; 10 mg/kg oral, 5 hours) [UPI] | Δ Volume of the inflamed paw ([2]; 20 mg/kg oral, 1.5 hours) [UPI] | Δ Volume of the inflamed paw ([2]; 20 mg/kg oral, 3 hours) [UPI] | Δ Volume of the inflamed paw ([2]; 20 mg/kg oral, 5 hours) [UPI] | Δ Volume of the inflamed paw ([2]; 40 mg/kg oral, 1.5 hours) [UPI] | Δ Volume of the inflamed paw ([2]; 40 mg/kg oral, 3 hours) [UPI] | Δ Volume of the inflamed paw ([2]; 40 mg/kg oral, 5 hours) [UPI] | IT (DL50/DE50) [2] | ED50 [2] [mg/kg] | LD50 (in vivo) [mg/kg] | also measured
COc1cc(C)nc(-n2nc(C)cc2OC)n1 [Mepyrazole] | 4.38 |  |  |  |  |  |  |  |  |  |  |  |  | 
O=C(O)c1cccnc1Nc1cccc(C(F)(F)F)c1 [Niflumic acid] |  | 25 | 51 | 80 | 20 | 35 | 56 | 18 | 33 | 49 | 11.40 | 7 | 30 | Edema by carrageen ([3]; 10 mg/kg, 1.5 hours): 25; Edema by carrageen ([3]; 10 mg/kg, 3 hours): 34; Edema by carrageen ([3]; 20 mg/kg, 1.5 hours): 20; Edema by carrageen ([3]; 20 mg/kg, 3 hours): 24; Edema by carrageen ([3]; 40 mg/kg, 1.5 hours): 19; Edema by carrageen ([3]; 40 mg/kg, 3 hours): 30
CCCC(C)C1(CC)C(=O)NC(=O)NC1=O (stereo not shown) [Pentobarbital sodium, reference compound] |  |  |  |  |  |  |  |  |  |  |  |  |  | Induction time [4]: 4.4 min; Sleeping time [4]: 49.1 min
CCCCC1C(=O)N(c2ccccc2)N(c2ccccc2)C1=O [Phenylbutazone] | 3.12 | 28 | 65 | 88 | 26 | 59 | 74 | 24 | 51 | 73 | 23.40 | 15 | 351 | activity on pleural exudate ([1]; exudate after 1 and 6 hours): significantly active; cholesterol (rats): the same for cholesterol at the larger doses; stomach appearance (rats): contract and pale
